The source of these data is patent US11384115B2, “Nuclear sulfated oxysterol, potent regulator of lipid homeostasis, for therapy of hypercholesterolemia, hypertriglycerides, fatty liver diseases, and atherosclerosis” (Virginia Commonwealth University, priority 2004, dated 2022).

In one assay the test system is HepG2 cells. The assay can be described thus: Cholesterol biosynthesis from [1-14C]acetate by TLC and HPLC. The assay is classed as cell-based, human. As to conditions: HepG2, 25HC3S 6 hrs then [14C]acetate 4 hrs. The protocol: After incubation of HepG2 cells with media containing 25HC3S for 6 hrs, cultures in 25-cm2 flasks were given 3 ml of the same fresh medium containing 5 μCi of the [1-^14C]acetate. After 4 hr incubation at 37° C., the media were removed and the cells were washed twice with phosphate-saline buffer (PBS), harvested with rubber police as described, and collected in Eppendoff tubes. The cells were sedimented by centrifugation and the pellets were washed three times by resuspension and sedimentation. The pellets were resuspended in 0.3 ml of PBS. The total lipids were extracted and separated by adding 3 volume of chloroform:methanol (v/v, 1:1). [^14C]Cholesterol and 27-hydroxycholesterol was isolated into chloroform phase and separated on TLC (tuluene:acetyl acetate, 2/3, v/v/). [1-^14C]acetate derivatives were visualized by Image Reader, Fujifilm BAS-1800 II.
[1-^14C]Acetate derivatives in the chloroform phase were analyzed by HPLC on an Ultrasphere Silica column (5μ×4.6 mm×25 cm; Backman, USA) using HP Series 1100 solvent delivery system (Hewlett Packard) at 1.3 ml/min flow rate. The column was equilibrated and run in a solvent system of hexane:isopropanol:glacial acetic acid (965:25:10, v/v/v), as the mobile phase. The effluents were collected every 0.5 min (0.65 ml per fraction) except as indicated. The counts in [^14C]acetate derivatives were determined by Scintillation Counting. […]

The next assay deals with primary rat hepatocytes. In words: Bile acid synthesis rate, conversion of [14C]cholesterol into methanol/water-soluble products. The assay is classed as cell-based. As to conditions: addition to primary rat hepatocytes. The procedure: FIGS. 9A-9B. Effect of the nuclear oxysterol on cholesterol uptake and bile acid biosynthesis. Rat primary hepatocyes were treated with nuclear extracts (methanol/water phase) (A and B) or purified nuclear oxysterol dissolved in control nuclear extract (C) 24 hrs after plating them. Then [^14C]cholesterol was added as described in FIG. 1. Culture media were then harvested at 0, 6, 12, and 24 hrs and radioactivity quantified (A). Bile acid synthesis rates (B and C) were measured as the conversion of [^14C]cholesterol into methanol/water extractable counts as described in (9). Bile acid synthetic rates were determined by the addition of 2.5 μCi of [^14C]cholesterol to each […] mm plate of confluent primary rat hepatocyte cultures ( 2.5×10^7 cells) 24 hrs after plating. Media and cells were harvested […]. Conversion of [^14C]cholesterol into [^14C]-methanol-water soluble products was determined by scintillation counting after extraction with chloroform-methanol (2:1, vol/vol) of cells and of culture media. Rates of bile acid biosynthesis following recombinant adenovirus infection were calculated as the ratio of [^14C]-methanol-water soluble counts to the sum of chloroform plus methanol-water counts. Individual bile acids were identified by HPLC analysis as described above. […] The phases were collected separately and counted.

Assay [1] concerns the target T1, PPARγ (Homo sapiens, UniProt P37231).
T1 construct: THP-1 monocytes were differentiated to macrophages by adding 100 nM of phorbol 12-myristate 13-acetate (PMA); endogenous in cells; host or cells: THP-1 monocyte-derived macrophages (human, ATCC)
T1 sequence (P37231 1-505): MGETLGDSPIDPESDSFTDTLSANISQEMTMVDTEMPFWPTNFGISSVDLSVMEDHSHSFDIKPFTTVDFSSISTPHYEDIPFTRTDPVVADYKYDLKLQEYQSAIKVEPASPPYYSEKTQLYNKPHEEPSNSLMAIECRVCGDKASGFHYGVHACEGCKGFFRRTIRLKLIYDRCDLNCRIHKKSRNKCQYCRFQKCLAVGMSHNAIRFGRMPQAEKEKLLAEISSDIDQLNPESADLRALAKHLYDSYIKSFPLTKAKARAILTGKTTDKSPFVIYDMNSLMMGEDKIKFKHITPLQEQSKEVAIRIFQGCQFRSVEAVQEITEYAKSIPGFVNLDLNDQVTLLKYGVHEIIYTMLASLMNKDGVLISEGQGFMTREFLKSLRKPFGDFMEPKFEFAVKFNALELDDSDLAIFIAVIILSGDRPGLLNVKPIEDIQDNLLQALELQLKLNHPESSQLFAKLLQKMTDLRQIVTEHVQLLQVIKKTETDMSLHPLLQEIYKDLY
In words: PPARγ transcription factor assay (PPRE-immobilized ELISA) of nuclear extracts. The assay is classed as cell-based. As to conditions: THP-1 macrophages, 4 hrs, concentration-dependent. (In general: In an ELISA, binding on a coated surface is turned into a signal by an enzyme label.)
Experimental: PPAR response elements (PPRE) binding activities were measured using an enzyme-linked immunosorbent assay (PPAR transcription factor assay kit; Cayman Chemical, Ann Arbor, Mich.). The 96-well plate was preimmobilized with deoxyoligonucleoties containing PPRE. […] The cells were then rinsed and nuclear proteins were extracted according to the manufacturer's instructions. Total nuclear extract protein, 10 g from each sample, was added to the plate. The kit provided two negative as zero controls, one positive as maximal binding control, and one competitive as specific binding control (in the presence of dsDNA) were used in the assay. After incubating for 1 hr, the wells were washed and incubated with primary PPAR antibody which recognizes the accessible epitope on PPAR protein upon PPRE binding. The peroxidase-labeled second antibody was added and incubated for 1 hr. The reaction was stopped and absorbance was read at 450 nm in a spectrophotometer.

Assay [2] relates to PPARγ. The assay can be described thus: PPRE promoter reporter gene-luciferase assay in H441 cells. The assay is classed as cell-based, human. The procedure:
H441 cells were seeded in 96-well plates. When cell density reached 90-95%, the cells were transfected with an expression plasmid as indicated using a lipid-based FuGENE HD transfection reagent according to the manufacture (Roche, Indianapolis, Ind.). A synthetic renilla luciferase reporter, phrG-TK (Promega, Wisconsin, Wis.), was used as a luciferase internal standard. For PPRE reporter gene assay, 50 ng of pGL3-PPRE-acyl-CoA oxidase luciferase reporter, 50 ng of expression plasmid pCMX-PPARγ, and 50 ng of phrG-TK vector (internal standard) were cotransfected as per the manufacture's instruction. […] Luciferase activities were determined using the Dual-Glo Luciferase Assay System according to the manufacturer's protocol (Promega, Wisconsin, Wis.). The amount of luciferase activity was measured using a TopCount NXT Microplate Scintillation and Luminescence Counter (Packard, Meriden, Conn.) and normalized to the amount of phG-TK luciferase activity. Transfections were carried out in triplicate for each sample, and each experiment was repeated three times.
A general note: Reporter assays use an easily measured gene product as a stand-in for the process of interest.

As to `C[C@H](CCCC(C)(C)O)[C@H]1CC[C@H]2[C@@H]3CC=C4C[C@@H](OS(=O)(=O)O)CC[C@]4(C)[C@H]3CC[C@]12C` [25HC3S, 5-cholesten-3β, 25-diol 3-sulphate], the “free [14C]cholesterol synthesized from [14C]acetate” value in the assay on HepG2 cells is “significantly decreased”. In addition, the “effect on bile acid synthetic rates” value in the assay on primary rat hepatocytes was “very similar to those in cells directly treated with the nuclear extracts from the StarD1 overexpressing cells”. For the same molecule, the “PPRE-binding activities of the nuclear extracts” value on PPARγ [1] is listed as “significantly increased”. In addition, in the assay on PPARγ [2] (H441, ACOX-PPRE reporter and PPARγ co-overexpression, 1 μM T0070907), the “PPARγ reporter gene activities in the presence of the antagonist T0070907” value was “failed”. For the same molecule, in the assay on PPARγ [2] (at 25 μM), the “PPRE activity relative to rosiglitazone” value is “reached to a similar levels as that induced by the PPARγ agonist rosiglitazone”.
